Experimental data taken from paper PMC7178854 (Journal of Enzyme Inhibition and Medicinal Chemistry, 2020).

Legend:
[1] = target: T1, ASFV protease (pS273R) (African swine fever virus BA71V, UniProt Q00946); type: biochemical
T1 construct: gene Ba71V-111

[2] = target: T1, ASFV protease (pS273R); test: biochemical

T1 sequence (Q00946 whole entry, looked up): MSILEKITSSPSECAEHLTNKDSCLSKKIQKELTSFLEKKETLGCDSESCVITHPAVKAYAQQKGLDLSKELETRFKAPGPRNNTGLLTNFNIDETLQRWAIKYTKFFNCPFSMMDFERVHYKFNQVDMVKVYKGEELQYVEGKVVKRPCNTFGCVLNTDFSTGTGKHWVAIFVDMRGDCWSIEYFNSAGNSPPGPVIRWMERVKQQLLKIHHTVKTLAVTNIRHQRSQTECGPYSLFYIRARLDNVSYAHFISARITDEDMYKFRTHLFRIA

Row | Structure (SMILES) | RFU at 40 μM [1] | IC50 [2] [µM]
1 | O=c1c(O)c(-c2ccc(O)cc2)oc2cc(O)cc(O)c12 [kaempferol] | Its activity, however, is similar to those of herbacetin, kaempferol and morin | 
2 | C[C@@H]1O[C@@H](Oc2c(-c3cc(O)c(O)c(O)c3)oc3cc(O)cc(O)c3c2=O)[C@H](O)[C@H](O)[C@H]1O [myricitrin] |  | 2.7
3 | O=c1c(O)c(-c2cc(O)c(O)c(O)c2)oc2cc(O)cc(O)c12 [myricetin, 3,3′,4′,5,5′,7-Hexahydroxyflavone] |  | 8.4
4 | O=c1c(O)c(-c2ccc(O)cc2)oc2c(O)c(O)cc(O)c12 [herbacetin] | Its activity, however, is similar to those of herbacetin, kaempferol and morin | 
5 | O=c1c(O)c(-c2ccc(O)cc2O)oc2cc(O)cc(O)c12 [morin] | Its activity, however, is similar to those of herbacetin, kaempferol and morin | 
